From patent publication US8124610B2, “Sodium channel inhibitors” (Icagen Inc., priority 2007, dated 2012)
pIC50: −log10 of the molar value.

Biological target: T1, hSCN9A (Homo sapiens, UniProt Q15858)
T1 construct: expressed in transfected cells
Assay: Whole-cell patch-clamp electrophysiology (conventional or PatchXpress), HEK cells expressing hSCN9A, estimated IC-50
Type: cell-based
Conditions: estimated IC-50, HEK cells expressing hSCN9A; class symbols or bounds; read-out: SCN9A EIC-50
Experimental: Human Embryonic Kidney (HEK) cells were transfected with hSCN3A or hSCN9A constructs using lipofectamine reagent (Invitrogen), using standard techniques. Cells stably expressing the hSCN3A or hSCN9A constructs were identified by their resistance to G-418 (400 μg/ml). Clones were screened for expression using the whole-cell voltage-clamp technique. HEK cells stably transfected with hSCN3A or hSCN9A were maintained in DMEM medium supplemented with 10% heat-inactivated fetal bovine serum and 400 μg/ml G418 sulfate in an incubator at 37° C. with a humidified atmosphere of 10% CO2. For HTS, cells were harvested from flasks by trypsinization and replated in an appropriate multi-well plate (typically 96 or 384 wells/plate) such that confluence would be achieved within 24 hours of plating. For electrophysiological studies, cells were removed from the culture flask by brief trypsinization and replated at low density onto glass cover slips. Cells were typically used for electrophysiological experiments within 24 to 72 h after plating. Cover slips containing HEK cells expressing hSCN3A or hSCN9A were placed in a bath on the stage of an inverted microscope and perfused (approximately 1 ml/min) with extracellular solution of the following composition: 138 mM NaCl, 2 mM CaCl2, 5.4 mM KCl, 1 mM MgCl2, 10 mM glucose, and 10 mM HEPES, pH 7.4, with NaOH. […] All recordings were made at room temperature (22-24° C.) using AXOPATCH 200B amplifiers and PCLAMP software (Axon Instruments, Burlingame, Calif.) or PatchXpress 7000 hardware and associated software (Axon Instruments, Burlingame, Calif.). hSCN3A or hSCN9A currents in HEK cells were measured using the whole-cell configuration of the patch-clamp technique (Hamill et al., 1981). […] As a result, voltage errors were negligible and no correction was applied. Current records were acquired at 20 to 50 KHz and filtered at 5 to 10 KHz. HEK cells stably transfected with hSCN3A or hSCN9A were viewed under Hoffman contrast optics and placed in front of an array of flow pipes emitting either control or compound-containing extracellular solutions. All compounds were dissolved in dimethyl sulfoxide to make 10 mM stock solutions, which were then diluted into extracellular solution to attain the final concentrations desired. […] The voltage-dependence of inactivation was determined by applying a series of depolarizing prepulses (8 sec long in 10 mV increments) from a negative holding potential. The voltage was then immediately stepped to 0 mV to assess the magnitude of the sodium current. Currents elicited at 0 mV were plotted as a function of prepulse potential to allow estimation of the voltage midpoint of inactivation (V1/2). Cells were then voltage clamped at the empirically determined V1/2. Compounds were tested for their ability to inhibit hSCN3A or hSCN9A sodium channels by activating the channel with a 20 msec voltage step to 0 mV following an 8 second conditioning prepulse to the empirically determined V1-2 (Table B). Compound effect (% inhibition) was determined by difference in current amplitude before and after application of test compounds. […] In some cases electrophysiological assays were conducted with PatchXpress 7000 hardware and associated software (Molecular Devices Corp) (Table B). All assay buffers and solutions were identical to those used in conventional whole-cell voltage clamp experiments described above. hSCN3A or hSCN9A containing cells were grown as above to 50%-80% confluency and harvested by trypsinization. Trypsinized cells were washed and resuspended in extracellular buffer at a concentration of 1×10^6 cells/ml. The onboard liquid handling facility of the PatchXpress was used for dispensing cells and application of test compounds. Determination of the voltage midpoint of inactivation was as described for conventional whole-cell recordings. Cells were then voltage-clamped to the empirically determined V1/2 and current was activated by a 20 msec voltage step to 0 mV.

T1 sequence (Q15858 whole entry): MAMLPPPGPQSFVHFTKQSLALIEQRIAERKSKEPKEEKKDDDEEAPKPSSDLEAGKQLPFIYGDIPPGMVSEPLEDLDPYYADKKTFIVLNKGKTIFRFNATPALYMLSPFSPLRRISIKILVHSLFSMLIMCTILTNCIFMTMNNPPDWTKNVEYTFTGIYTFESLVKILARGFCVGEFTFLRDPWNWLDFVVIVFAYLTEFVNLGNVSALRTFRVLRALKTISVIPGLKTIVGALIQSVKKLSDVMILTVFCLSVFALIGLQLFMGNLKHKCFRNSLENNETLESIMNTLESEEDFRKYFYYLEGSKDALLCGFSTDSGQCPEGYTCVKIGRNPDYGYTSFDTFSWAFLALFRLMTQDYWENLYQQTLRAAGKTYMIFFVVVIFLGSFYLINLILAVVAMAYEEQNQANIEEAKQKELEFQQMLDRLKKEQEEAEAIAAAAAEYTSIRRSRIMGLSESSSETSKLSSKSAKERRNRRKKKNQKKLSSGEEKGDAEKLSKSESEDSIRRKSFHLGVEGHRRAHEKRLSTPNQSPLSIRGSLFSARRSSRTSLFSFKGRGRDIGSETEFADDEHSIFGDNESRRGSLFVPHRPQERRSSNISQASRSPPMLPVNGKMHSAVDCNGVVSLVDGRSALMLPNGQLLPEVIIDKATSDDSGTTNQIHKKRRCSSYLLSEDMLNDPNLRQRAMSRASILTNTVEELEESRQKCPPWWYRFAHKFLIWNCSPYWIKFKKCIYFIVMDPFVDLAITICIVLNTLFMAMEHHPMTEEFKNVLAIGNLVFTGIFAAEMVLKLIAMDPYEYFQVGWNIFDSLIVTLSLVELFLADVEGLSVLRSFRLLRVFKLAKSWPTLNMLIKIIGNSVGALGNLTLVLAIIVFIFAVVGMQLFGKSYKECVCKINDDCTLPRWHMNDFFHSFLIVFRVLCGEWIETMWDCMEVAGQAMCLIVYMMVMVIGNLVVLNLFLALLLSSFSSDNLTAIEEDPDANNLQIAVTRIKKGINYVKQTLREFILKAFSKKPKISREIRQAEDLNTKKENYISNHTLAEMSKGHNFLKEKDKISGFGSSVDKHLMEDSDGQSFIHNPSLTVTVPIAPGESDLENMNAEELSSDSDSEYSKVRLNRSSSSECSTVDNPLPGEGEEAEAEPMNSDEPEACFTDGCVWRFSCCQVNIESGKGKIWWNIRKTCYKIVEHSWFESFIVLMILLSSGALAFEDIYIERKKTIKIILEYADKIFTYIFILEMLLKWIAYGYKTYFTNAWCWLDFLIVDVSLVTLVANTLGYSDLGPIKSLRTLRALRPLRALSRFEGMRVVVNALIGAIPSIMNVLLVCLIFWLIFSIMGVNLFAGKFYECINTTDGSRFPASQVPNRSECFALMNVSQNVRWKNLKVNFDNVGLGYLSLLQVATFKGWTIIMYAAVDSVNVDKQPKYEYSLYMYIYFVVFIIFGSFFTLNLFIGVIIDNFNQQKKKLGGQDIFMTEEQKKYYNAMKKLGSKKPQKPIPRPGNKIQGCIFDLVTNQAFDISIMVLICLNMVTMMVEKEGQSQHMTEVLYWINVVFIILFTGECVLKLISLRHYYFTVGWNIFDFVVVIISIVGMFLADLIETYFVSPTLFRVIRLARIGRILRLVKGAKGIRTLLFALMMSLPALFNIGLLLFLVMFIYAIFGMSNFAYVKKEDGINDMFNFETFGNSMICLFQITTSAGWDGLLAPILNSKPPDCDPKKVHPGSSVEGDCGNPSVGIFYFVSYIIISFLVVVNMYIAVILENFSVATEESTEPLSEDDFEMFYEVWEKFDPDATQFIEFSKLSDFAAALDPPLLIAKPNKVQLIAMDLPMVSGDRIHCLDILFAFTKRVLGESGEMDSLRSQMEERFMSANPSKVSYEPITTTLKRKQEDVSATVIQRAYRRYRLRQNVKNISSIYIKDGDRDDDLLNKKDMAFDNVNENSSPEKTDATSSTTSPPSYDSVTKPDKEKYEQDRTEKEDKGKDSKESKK

How did the pIC50 turn out when `CC(C)(C)c1ccc(OCc2csc(Nc3ccc(S(=O)(=O)Nc4nccs4)c(F)c3)n2)cc1` [Compound 102, 4-(4-((4-tert-butylphenoxy)methyl)thiazol-2-ylamino)-2-fluoro-N-(thiazol-2-yl)benzenesulfonamide] was run?
Its pIC50 is > 5.70.

With `O=S(=O)(Nc1nccs1)c1ccc(Nc2nc(-c3ccc(Cl)cc3)cs2)cc1F` [Compound 104, 4-(4-(4-chlorophenyl)thiazol-2-ylamino)-2-fluoro-N-(thiazol-2-yl)benzenesulfonamide] as the molecule, how does the pIC50 read?
The pIC50 was < 6.00.

With `O=S(=O)(Nc1nccs1)c1ccc(Nc2nc3ccccc3o2)cc1` [Compound 114, 4-(benzo[d]oxazol-2-ylamino)-N-(thiazol-2-yl)benzenesulfonamide] as the molecule, how does the pIC50 read?
Its pIC50 is 5.00 to 5.70.

How did the pIC50 turn out when `CC(C)(C)c1csc(Nc2ccc(S(=O)(=O)Nc3nccs3)nc2)n1` [Compound 116, 5-(4-tert-butylthiazol-2-ylamino)-N-(thiazol-2-yl)pyridine-2-sulfonamide] was run?
The pIC50 was < 6.00.

How did the pIC50 turn out when `O=S(=O)(Nc1nccs1)c1ccc(Nc2nc3ccccc3s2)cc1` [Compound 117, 4-(benzo[d]thiazol-2-ylamino)-N-(thiazol-2-yl)benzenesulfonamide] was run?
Its pIC50 is < 6.00.

With `O=S(=O)(Nc1nccs1)c1ccc(Nc2nnc(Cc3ccc(Cl)cc3)o2)cc1` [Compound 118, 4-(5-(4-chlorobenzyl)-1,3,4-oxadiazol-2-ylamino)-N-(thiazol-2-yl)benzenesulfonamide] as the molecule, how does the pIC50 read?
The pIC50 was < 6.00.

`Cn1nc(Cc2ccc(Cl)cc2)c(C#N)c1Nc1ccc(S(=O)(=O)Nc2nccs2)cc1` [Compound 119, 4-(3-(4-chlorobenzyl)-4-cyano-1-methyl-1H-pyrazol-5-ylamino)-N-(thiazol-2-yl)benzenesulfonamide] was tested. Which pIC50 did it give?
The pIC50 was 5.00 to 5.70.

How did the pIC50 turn out when `O=S(=O)(Nc1nccs1)c1ccc(Nc2nnc(Cc3ccc(Cl)cc3)s2)cc1` [Compound 120, 4-(5-(4-chlorobenzyl)-1,3,4-thiadiazol-2-ylamino)-N-(thiazol-2-yl)benzenesulfonamide] was run?
Its pIC50 is 5.00 to 5.70.

With `Cn1nc(Cc2ccc(Cl)cc2)c(C(N)=O)c1Nc1ccc(S(=O)(=O)Nc2nccs2)cc1` [Compound 121, 3-(4-chlorobenzyl)-1-methyl-5-(4-(N-thiazol-2-ylsulfamoyl)phenylamino)-1H-pyrazole-4-carboxamide] as the molecule, how does the pIC50 read?
The pIC50 was < 6.00.

With `Cc1nn(C)c(Nc2ccc(S(=O)(=O)Nc3nccs3)cc2)c1-c1ccccc1` [Compound 122, 4-(1,3-dimethyl-4-phenyl-1H-pyrazol-5-ylamino)-N-(thiazol-2-yl)benzenesulfonamide] as the molecule, how does the pIC50 read?
The pIC50 was < 6.00.

`Cc1nn(C(C)(C)C)c(Nc2ccc(S(=O)(=O)Nc3nccs3)cc2)c1-c1ccccc1` [Compound 123, 4-(1-tert-butyl-3-methyl-4-phenyl-1H-pyrazol-5-ylamino)-N-(thiazol-2-yl)benzenesulfonamide] was tested. Which pIC50 did it give?
The pIC50 was < 6.00.

`Cc1n[nH]c(Nc2ccc(S(=O)(=O)Nc3nccs3)cc2)c1-c1ccccc1` [Compound 124, 4-(3-methyl-4-phenyl-1H-pyrazol-5-ylamino)-N-(thiazol-2-yl)benzenesulfonamide] was tested. Which pIC50 did it give?
The pIC50 was < 6.00.

`Cn1nc(CC(C)(C)C)cc1Nc1ccc(S(=O)(=O)Nc2nccs2)cc1` [Compound 125, 4-(1-methyl-3-neopentyl-1H-pyrazol-5-ylamino)-N-(thiazol-2-yl)benzenesulfonamide] was tested. Which pIC50 did it give?
The pIC50 was 5.00 to 5.70.

How did the pIC50 turn out when `COc1ccc(Cc2cc(Nc3ccc(S(=O)(=O)Nc4nccs4)cc3)n(C)n2)cc1` [Compound 126, 4-(3-(4-methoxybenzyl)-1-methyl-1H-pyrazol-5-ylamino)-N-(thiazol-2-yl)benzenesulfonamide] was run?
The pIC50 was < 6.00.

With `COc1ccccc1Cc1cc(Nc2ccc(S(=O)(=O)Nc3nccs3)cc2)n(C)n1` [Compound 127, 4-(3-(2-methoxybenzyl)-1-methyl-1H-pyrazol-5-ylamino)-N-(thiazol-2-yl)benzenesulfonamide] as the molecule, how does the pIC50 read?
The pIC50 was 5.00 to 5.70.

With `Cc1cc(Nc2ccc(S(=O)(=O)Nc3nccs3)cc2)n(Cc2ccc(Cl)cc2)n1` [Compound 128, 4-(1-(4-chlorobenzyl)-3-methyl-1H-pyrazol-5-ylamino)-N-(thiazol-2-yl)benzenesulfonamide] as the molecule, how does the pIC50 read?
The pIC50 was 5.00 to 5.70.

How did the pIC50 turn out when `Cc1cc(Nc2ccc(S(=O)(=O)Nc3nccs3)cc2)n(Cc2ccncc2)n1` [Compound 131, 4-(3-methyl-1-(pyridin-4-ylmethyl)-1H-pyrazol-5-ylamino)-N-(thiazol-2-yl)benzenesulfonamide] was run?
The pIC50 was < 6.00.

How did the pIC50 turn out when `Cc1cc(Nc2ccc(S(=O)(=O)Nc3nccs3)cc2)n(CC2CCCCC2)n1` [Compound 132, 4-(1-(cyclohexylmethyl)-3-methyl-1H-pyrazol-5-ylamino)-N-(thiazol-2-yl)benzenesulfonamide] was run?
The pIC50 was < 6.00.

`O=C1CC(c2ccccc2)Cc2nc(Nc3ccc(S(=O)(=O)Nc4nccs4)cc3)sc21` (centres unmarked) [Compound 135, 4-(7-oxo-5-phenyl-4,5,6,7-tetrahydrobenzo[d]thiazol-2-ylamino)-N-(thiazol-2-yl)benzenesulfonamide] was tested. Which pIC50 did it give?
Its pIC50 is < 6.00.

How did the pIC50 turn out when `CC1(C)CC(=O)c2sc(Nc3ccc(S(=O)(=O)Nc4nccs4)cc3)nc2C1` [Compound 136, 4-(5,5-dimethyl-7-oxo-4,5,6,7-tetrahydrobenzo[d]thiazol-2-ylamino)-N-(thiazol-2-yl)benzenesulfonamide] was run?
Its pIC50 is < 6.00.

With `Cc1cc(Nc2ccc(S(=O)(=O)Nc3nccs3)cc2)n(-c2ccc(Cl)cc2)n1` [Compound 137, 4-(1-(4-chlorophenyl)-3-methyl-1H-pyrazol-5-ylamino)-N-(thiazol-2-yl)benzenesulfonamide] as the molecule, how does the pIC50 read?
The pIC50 was 5.00 to 5.70.

How did the pIC50 turn out when `Cn1nc(Cc2ccc(C(F)(F)F)cc2)cc1Nc1ccc(S(=O)(=O)Nc2nccs2)cc1` [Compound 138, 4-(1-methyl-3-(4-(trifluoromethyl)benzyl)-1H-pyrazol-5-ylamino)-N-(thiazol-2-yl)benzenesulfonamide] was run?
The pIC50 was > 5.70.

How did the pIC50 turn out when `Cn1nc(Cc2ccc(F)cc2F)cc1Nc1ccc(S(=O)(=O)Nc2nccs2)cc1` [Compound 139, 4-(3-(2,4-difluorobenzyl)-1-methyl-1H-pyrazol-5-ylamino)-N-(thiazol-2-yl)benzenesulfonamide] was run?
Its pIC50 is > 5.70.

With `Cc1cc(Nc2ccc(S(=O)(=O)Nc3nccs3)c(F)c2)n(-c2ccc(Cl)cc2)n1` [Compound 140, 4-(1-(4-chlorophenyl)-3-methyl-1H-pyrazol-5-ylamino)-2-fluoro-N-(thiazol-2-yl)benzenesulfonamide] as the molecule, how does the pIC50 read?
Its pIC50 is > 5.70.

How did the pIC50 turn out when `Cn1nc(Cc2ccc(Cl)cc2)cc1Nc1ccc(S(=O)(=O)Nc2nccs2)c(F)c1` [Compound 141, 4-(3-(4-chlorobenzyl)-1-methyl-1H-pyrazol-5-ylamino)-2-fluoro-N-(thiazol-2-yl)benzenesulfonamide] was run?
The pIC50 was > 5.70.

With `Cn1nc(C2(c3ccc(Cl)cc3)CC2)cc1Nc1ccc(S(=O)(=O)Nc2nccs2)cc1F` [Compound 142, 4-(3-(1-(4-chlorophenyl)cyclopropyl)-1-methyl-1H-pyrazol-5-ylamino)-3-fluoro-N-(thiazol-2-yl)benzenesulfonamide] as the molecule, how does the pIC50 read?
Its pIC50 is > 5.70.

How did the pIC50 turn out when `Cn1nc(Cc2ccc(Cl)cc2)cc1Nc1ccc(S(=O)(=O)Nc2nccs2)cc1F` [Compound 143, 4-(3-(4-chlorobenzyl)-1-methyl-1H-pyrazol-5-ylamino)-3-fluoro-N-(thiazol-2-yl)benzenesulfonamide] was run?
The pIC50 was > 5.70.

`O=S(=O)(Nc1nccs1)c1ccc(Nc2cc(C3CC3)nn2-c2ccccc2)cc1` [Compound 144, 4-(3-cyclopropyl-1-phenyl-1H-pyrazol-5-ylamino)-N-(thiazol-2-yl)benzenesulfonamide] was tested. Which pIC50 did it give?
Its pIC50 is > 5.70.

With `Cn1ncc(-c2ccccc2)c1Nc1ccc(S(=O)(=O)Nc2nccs2)c(F)c1` [Compound 148, 2-fluoro-4-(1-methyl-4-phenyl-1H-pyrazol-5-ylamino)-N-(thiazol-2-yl)benzenesulfonamide] as the molecule, how does the pIC50 read?
The pIC50 was 5.00 to 5.70.
